Columns and labels:
Test in all cases: Greenhouse pot test, postemergent spray, visual control rating converted to percent control
Assay type in all cases: in vivo
white clover = test system: white clover
Description: (§1) Pots of crabgrass, dandelion, white clover, and plantain grown in greenhouse soiless growth media were sprayed with a greenhouse pot sprayer at 43.46 gallons of spray solution/acre and allowed to stand in the greenhouse. Visual observation of the effects made by the herbicidal compositions on the plants in the test pots was recorded for control of crabgrass, dandelion, clover and plantain at 24 hours after treatment (HAT), 48 hours after treatment (HAT), 72 hours after treatment (HAT), 7 days after treatment (DAT), 14 days after treatment (DAT) and 21 days after treatment (DAT). A control rating scale of 1 to 9 was used to record the visual observation of the effect of the herbicidal composition on the plants over the time period of the tests. 1=no control, and 9=death of plant, with intervening numbers representing successive degrees of observed effectiveness of the herbicidal composition over time. The 1-9 control rating scale was converted to percent control in the test data charts that follow.
(§2) The test protocol of S. R. Colby as set out in his article entitled “Calculating Synergistic and Antagonistic Responses of Herbicide Compositions,” received for publication Apr. 11, 1966, Contribution No. 3796 and Scientific Article No. 1271 of the Maryland Agricultural Experiment Station, Department pf Agronomy, University of Maryland was followed to evaluate the synergistic properties of the combination of quinclorac plus a herbicidal protox inhibitor, and a combination of quinclorac, plus a herbicidal protox inhibitor plus a herbicidal auxinic agent as compared with the individual herbicides, using Colby's formulas E=X+Y−XY/100 for a two herbicide combination, where E=the expected percent of inhibition of growth by herbicides, X=the percent inhibition of growth by herbicide A at p lb/A, and Y=the percent inhibition of growth by herbicide B at q lb/A, for a given combination of two herbicides. Colby's formula E=X+Y+Z−(XY+XZ+YZ)/100+XYZ/10,000, was used for the three-way herbicide combination evaluation, where E, X and Y are the same as in the two herbicide formula and Z=the percent inhibition of growth by the third herbicide.

dandelion = test system: dandelion
Description: as §1, §2

plantain = test system: plantain
Description: as §1, §2

crabgrass = test system: crabgrass
Description: as §1, §2

[1] = Test 4, 24 HAT, scale 1=no control, 9=death of plant
[2] = Test 4, 72 HAT, scale 1=no control, 9=death of plant

## Cc1nn(-c2cc(CC(Cl)C(=O)O)c(Cl)cc2F)c(=O)n1C(F)F (stereo not drawn) [Carfentrazone @ 0.02 lbs/A]
White clover; Test 4, 24 HAT
  % Control Clover: 44.4%
White clover; [1]
  Control (1-9) Clover: 4
White clover; Test 4, 72 HAT
  % Control Clover: 44.4%
White clover; [2]
  Control (1-9) Clover: 4
dandelion; Test 4, 24 HAT
  % Control Dandelion: 33.3%
dandelion; [1]
  Control (1-9) Dandelion: 3
dandelion; Test 4, 72 HAT
  % Control Dandelion: 55.6%
dandelion; [2]
  Control (1-9) Dandelion: 5
plantain; Test 4, 24 HAT
  % Control Plantain: 33.3%
plantain; [1]
  Control (1-9) Plantain: 3
plantain; Test 4, 72 HAT
  % Control Plantain: 66.7%
plantain; [2]
  Control (1-9) Plantain: 6
crabgrass; Test 4, 24 HAT
  % Control Crabgrass: 11.1%
crabgrass; [1]
  Control (1-9) Crabgrass: 1
crabgrass; Test 4, 72 HAT
  % Control Crabgrass: 44.4%
crabgrass; [2]
  Control (1-9) Crabgrass: 4

## Cc1nn(-c2cc(CC(Cl)C(=O)O)c(Cl)cc2F)c(=O)n1C(F)F (stereo not drawn) [Carfentrazone]
White clover; Test 1, 7 DAT, 0.01 lbs/A
  % Control Clover: 66.7%
  Control (1-9) Clover: 6
White clover; Test 1, 7 DAT, 0.02 lbs/A
  % Control Clover: 66.7%
  Control (1-9) Clover: 6
White clover; Test 1, 14 DAT, 0.01 lbs/A
  % Control Clover: 77.8%
  Control (1-9) Clover: 7
White clover; Test 1, 14 DAT, 0.02 lbs/A
  % Control Clover: 100.0%
  Control (1-9) Clover: 9
White clover; Test 1, 24 HAT, 0.01 lbs/A
  % Control Clover: 33.3%
  Control (1-9) Clover: 3
White clover; Test 1, 24 HAT, 0.02 lbs/A
  % Control Clover: 33.3%
  Control (1-9) Clover: 3
White clover; Test 1, 48 HAT, 0.01 lbs/A
  % Control Clover: 55.6%
  Control (1-9) Clover: 5
White clover; Test 1, 48 HAT, 0.02 lbs/A
  % Control Clover: 55.6%
  Control (1-9) Clover: 5
White clover; Test 4, 7 DAT, 0.01 lbs/A
  % Control Clover: 66.7%
  Control (1-9) Clover: 6
White clover; Test 4, 7 DAT, 0.02 lbs/A
  % Control Clover: 77.8%
  Control (1-9) Clover: 7
White clover; Test 4, 14 DAT, 0.01 lbs/A
  % Control Clover: 66.7%
  Control (1-9) Clover: 6
White clover; Test 4, 14 DAT, 0.02 lbs/A
  % Control Clover: 88.9%
  Control (1-9) Clover: 8
dandelion; Test 1, 7 DAT, 0.01 lbs/A
  % Control Dandelion: 88.9%
  Control (1-9) Dandelion: 8
dandelion; Test 1, 7 DAT, 0.02 lbs/A
  % Control Dandelion: 88.9%
  Control (1-9) Dandelion: 8
dandelion; Test 1, 14 DAT, 0.01 lbs/A
  % Control Dandelion: 88.9%
  Control (1-9) Dandelion: 8
dandelion; Test 1, 14 DAT, 0.02 lbs/A
  % Control Dandelion: 100.0%
  Control (1-9) Dandelion: 9
dandelion; Test 1, 24 HAT, 0.01 lbs/A
  % Control Dandelion: 44.4%
  Control (1-9) Dandelion: 4
dandelion; Test 1, 24 HAT, 0.02 lbs/A
  % Control Dandelion: 33.3%
  Control (1-9) Dandelion: 3
dandelion; Test 1, 48 HAT, 0.01 lbs/A
  % Control Dandelion: 55.6%
  Control (1-9) Dandelion: 5
dandelion; Test 1, 48 HAT, 0.02 lbs/A
  % Control Dandelion: 55.6%
  Control (1-9) Dandelion: 5
dandelion; Test 4, 7 DAT, 0.01 lbs/A
  % Control Dandelion: 55.6%
  Control (1-9) Dandelion: 5
dandelion; Test 4, 7 DAT, 0.02 lbs/A
  % Control Dandelion: 88.9%
  Control (1-9) Dandelion: 8
dandelion; Test 4, 14 DAT, 0.01 lbs/A
  % Control Dandelion: 55.6%
  Control (1-9) Dandelion: 5
dandelion; Test 4, 14 DAT, 0.02 lbs/A
  % Control Dandelion: 88.9%
  Control (1-9) Dandelion: 8
plantain; Test 4, 7 DAT, 0.01 lbs/A
  % Control Plantain: 100.0%
  Control (1-9) Plantain: 9
plantain; Test 4, 7 DAT, 0.02 lbs/A
  % Control Plantain: 88.9%
  Control (1-9) Plantain: 8
plantain; Test 4, 14 DAT, 0.01 lbs/A
  % Control Plantain: 100.0%
  Control (1-9) Plantain: 9
plantain; Test 4, 14 DAT, 0.02 lbs/A
  % Control Plantain: 88.9%
  Control (1-9) Plantain: 8
crabgrass; Test 1, 7 DAT, 0.01 lbs/A
  % Control Crabgrass: 77.8%
  Control (1-9) Crabgrass: 7
crabgrass; Test 1, 7 DAT, 0.02 lbs/A
  % Control Crabgrass: 77.8%
  Control (1-9) Crabgrass: 7
crabgrass; Test 1, 14 DAT, 0.01 lbs/A
  % Control Crabgrass: 33.3%
  Control (1-9) Crabgrass: 3
crabgrass; Test 1, 14 DAT, 0.02 lbs/A
  % Control Crabgrass: 33.3%
  Control (1-9) Crabgrass: 3
crabgrass; Test 1, 24 HAT, 0.01 lbs/A
  % Control Crabgrass: 22.2%
  Control (1-9) Crabgrass: 2
crabgrass; Test 1, 24 HAT, 0.02 lbs/A
  % Control Crabgrass: 33.3%
  Control (1-9) Crabgrass: 3
crabgrass; Test 1, 48 HAT, 0.01 lbs/A
  % Control Crabgrass: 33.3%
  Control (1-9) Crabgrass: 3
crabgrass; Test 1, 48 HAT, 0.02 lbs/A
  % Control Crabgrass: 55.6%
  Control (1-9) Crabgrass: 5
crabgrass; Test 4, 7 DAT, 0.01 lbs/A
  % Control Crabgrass: 55.6%
  Control (1-9) Crabgrass: 5
crabgrass; Test 4, 7 DAT, 0.02 lbs/A
  % Control Crabgrass: 55.6%
  Control (1-9) Crabgrass: 5
crabgrass; Test 4, 14 DAT, 0.01 lbs/A
  % Control Crabgrass: 55.6%
  Control (1-9) Crabgrass: 5
crabgrass; Test 4, 14 DAT, 0.02 lbs/A
  % Control Crabgrass: 55.6%
  Control (1-9) Crabgrass: 5

## Cc1nn(-c2cc(NS(C)(=O)=O)c(Cl)cc2Cl)c(=O)n1C(F)F [Sulfentrazone, reference compound]
White clover; Test 2, 7 DAT, 0.02 lbs/A
  % Control Clover: 77.8%
  Control (1-9) Clover: 7
White clover; Test 2, 7 DAT, 0.03 lbs/A
  % Control Clover: 55.6%
  Control (1-9) Clover: 5
White clover; Test 2, 14 DAT, 0.02 lbs/A
  % Control Clover: 77.8%
  Control (1-9) Clover: 7
White clover; Test 2, 14 DAT, 0.03 lbs/A
  % Control Clover: 66.7%
  Control (1-9) Clover: 6
White clover; Test 2, 24 HAT, 0.02 lbs/A
  % Control Clover: 22.2%
  Control (1-9) Clover: 2
White clover; Test 2, 24 HAT, 0.03 lbs/A
  % Control Clover: 22.2%
  Control (1-9) Clover: 2
White clover; Test 2, 72 HAT, 0.02 lbs/A
  % Control Clover: 33.3%
  Control (1-9) Clover: 3
White clover; Test 2, 72 HAT, 0.03 lbs/A
  % Control Clover: 22.2%
  Control (1-9) Clover: 2
dandelion; Test 2, 7 DAT, 0.02 lbs/A
  % Control Dandelion: 88.9%
  Control (1-9) Dandelion: 8
dandelion; Test 2, 7 DAT, 0.03 lbs/A
  % Control Dandelion: 88.9%
  Control (1-9) Dandelion: 8
dandelion; Test 2, 14 DAT, 0.02 lbs/A
  % Control Dandelion: 88.9%
  Control (1-9) Dandelion: 8
dandelion; Test 2, 14 DAT, 0.03 lbs/A
  % Control Dandelion: 88.9%
  Control (1-9) Dandelion: 8
dandelion; Test 2, 24 HAT, 0.02 lbs/A
  % Control Dandelion: 22.2%
  Control (1-9) Dandelion: 2
dandelion; Test 2, 24 HAT, 0.03 lbs/A
  % Control Dandelion: 22.2%
  Control (1-9) Dandelion: 2
dandelion; Test 2, 72 HAT, 0.02 lbs/A
  % Control Dandelion: 44.4%
  Control (1-9) Dandelion: 4
dandelion; Test 2, 72 HAT, 0.03 lbs/A
  % Control Dandelion: 44.4%
  Control (1-9) Dandelion: 4
crabgrass; Test 2, 7 DAT, 0.02 lbs/A
  % Control Crabgrass: 22.2%
  Control (1-9) Crabgrass: 2
crabgrass; Test 2, 7 DAT, 0.03 lbs/A
  % Control Crabgrass: 22.2%
  Control (1-9) Crabgrass: 2
crabgrass; Test 2, 14 DAT, 0.02 lbs/A
  % Control Crabgrass: 22.2%
  Control (1-9) Crabgrass: 2
crabgrass; Test 2, 14 DAT, 0.03 lbs/A
  % Control Crabgrass: 22.2%
  Control (1-9) Crabgrass: 2
crabgrass; Test 2, 24 HAT, 0.02 lbs/A
  % Control Crabgrass: 33.3%
  Control (1-9) Crabgrass: 3
crabgrass; Test 2, 24 HAT, 0.03 lbs/A
  % Control Crabgrass: 44.4%
  Control (1-9) Crabgrass: 4
crabgrass; Test 2, 72 HAT, 0.02 lbs/A
  % Control Crabgrass: 33.3%
  Control (1-9) Crabgrass: 3
crabgrass; Test 2, 72 HAT, 0.03 lbs/A
  % Control Crabgrass: 33.3%
  Control (1-9) Crabgrass: 3

Reference: patent US20040266623A1, “SYNERGISTIC QUINCLORAC HERBICIDAL COMPOSITIONS” (priority 2003, published 2004)
